From patent publication US9210936B2, “Biocidal compositions and methods of use” (Dow Global Technologies LLC, priority 2011, dated 2015)

Key:
Format in all cases: cell-based
[1] = system: Desulfovibrio longus ATCC 51456; assay: Biocidal efficacy (MBC, minimum tested biocide concentration for complete bacterial kill) against anaerobic bacteria in salt solution; details: 35° C., 2 hours, 10^6 to 10^7 CFU/mL; for Concentration (ppm active) for anaerobic bacteria kill, DTEA: DTEA part of the MBC for complete bacterial kill; for Concentration (ppm active) for anaerobic bacteria kill, THPS: THPS part of the MBC for complete bacterial kill
Experimental: The synergy indexes reported in the following examples are calculated using the following equation: Synergy Index=Ca/CA+Cb/CB
Ca: Concentration of biocide A required to achieve a certain level of bacterial kill when used in combination with B
CA: Concentration of biocide A required to achieve a certain level of bacterial kill when used alone
Cb: Concentration of biocide B required to achieve a certain level of bacterial kill when used in combination with A
CB: Concentration of biocide B required to achieve a certain level of bacterial kill when used alone.
A synergy index (SI) of 1 indicates additivity, a synergy index of less than 1 indicates synergy, and a synergy index greater than 1 indicates antagonism.
Inside an anaerobic chamber (Bactron anaerobic chamber), a deoxygenated sterile salt solution (3.1183 g of NaCl, 1.3082 mg of NaHCO3, 47.70 mg of KCl, 72.00 mg of CaCl2, 54.49 mg of MgSO4, 172.28 mg of Na2SO4, 43.92 mg of Na2CO3 in 1 L water) is inoculated with Desulfovibrio longus ATCC 51456 to a final bacterial concentration of 10^6 to 10^7 CFU/mL. […] After the treated cell suspensions are incubated at 35° C. for 2 hours, the biocidal efficacy is determined by minimum tested biocide concentration for complete bacterial kill in the aliquots (MBC).

[2] = system: Biofilms of Desulfovibrio longus ATCC 51456 (sessile bacteria); assay: Sessile bacteria kill in biofilms grown in Calgary Biofilm Device; details: 72 hours biofilm, 2 hours treatment, anaerobic
Experimental: (§1) Modified Baar's Medium (ATCC #1249 Broth) is used as culture medium and the medium is changed after 48 hrs of incubation.

[3] = system: Biofilms of Desulfovibrio longus ATCC 51456; assay: Biofilm removal, remaining biofilm by crystal violet staining; details: 2 hours treatment, optical density of biofilm captured crystal violet at 580 nm
Experimental: as §1
The biofilm is fixed with 99% methanol and, after air drying, the pegs are stained with 2% (w/v) crystal violet and washed with tap water. The pegs are then air dried and the crystal violet bound to the biofilm is extracted with 33% glacial acetic acid. The total remaining biofilm is determined by the optical density (OD) of the extracted solution at 580 nm.

Compound	Concentration (ppm active) for anaerobic bacteria kill, DTEA [1] [ppm active]	Concentration (ppm active) for anaerobic bacteria kill, THPS [1] [ppm active]	Concentration (ppm active) for 3 log10 bacterial reduction [2] [ppm active]	Remaining biofilm, OD580 ([3]; 50 ppm active)	Remaining biofilm, OD580 ([3]; 100 ppm active)
CCCCCCCCCCSCCN [DTEA, 2-(decylthio)ethanamine]	20.00	0.00			
tetrakis(hydroxymethyl)phosphonium sulfate [THPS]	0.00	19.75	50	0.57	0.68
